Data as given in patent US20150157021A1, “NEW ANTIFUNGAL COMPOSITIONS” (DSM IP ASSETS B.V., priority 2012, published 2015).

What was measured:
Assay type in all cases: in vivo
Penicillium italicum = experiment: Treatment of wounded oranges inoculated with Penicillium italicum (Examples 7, 8); settings: 20° C.
Experimental: Ten fresh, organic oranges were used per treatment. Each orange was soaked in a 180 ppm hypochlorite solution for 10 minutes, then rinsed thoroughly with fresh tap water and dried. The peel of each disinfected orange was wounded once using a cork borer according to the method described by de Lapeyre de Bellaire and Dubois (1987). Subsequently, each wound was inoculated with 10 μl of a Penicillium italicum suspension containing 1×10^5 of spores/ml. After incubation for 3 hours at 20° C., each wound and the orange peel area of 1 cm around the wound was treated with in total 150 μl of a freshly prepared aqueous antifungal composition comprising either 500 ppm natamycin (DSM Food Specialties, Delft, The Netherlands), 800 ppm boscalid or both. Each antifungal composition also comprised 3.2% (w/w) beeswax, 0.8% (w/w) glycerol, 0.7% (w/w) polyoxyethylene sorbitan monostearate (Tween 60), 0.2% (w/w) polyoxyethylene sorbitan monooleate (Tween 80), 0.05% (w/w) methylhydroxyethyl-cellulose (MHEC), 0.03% (w/w) anti-foaming agent, 0.02% (w/w) xanthan gum, 0.02% (w/w) citric acid, 0.01% (w/w) lactic acid and 0.01% potassium sorbate. A composition without natamycin or boscalid was used as control. […] The treated oranges were incubated in a closed box in the dark at 20° C. and assessed on mould growth during a 17-day incubation period. The antifungal activity (in %) of the individual and combined active ingredients was determined by calculating the reduction in mould growth observed on the oranges treated with the antifungal composition in comparison to the mould growth on the oranges treated with the control composition according to the Colby method (Colby, 1967) described in Example 5.
The experiment was conducted as described in Example 7, except for the fact that each wounded and inoculated orange was treated with 150 μl of a freshly prepared aqueous antifungal composition comprising either 250 ppm natamycin (DSM Food Specialties, Delft, The Netherlands), 400 ppm boscalid or both. The treated oranges were incubated in a closed box in the dark at 20° C. and assessed on mould growth during a 18-day incubation period. During incubation, the treated oranges were assessed on mould growth according to the method described in Example 7.

Botrytis cinerea [1] = experiment: Treatment of wounded sweet peppers inoculated with Botrytis cinerea (Examples 9, 10); settings: 20° C., 400 ppm natamycin
Experimental: Ten fresh, organic sweet peppers were used per treatment. Each sweet pepper was soaked in a 180 ppm hypochlorite solution for 10 minutes, then rinsed thoroughly with fresh tap water and dried. The peel of each disinfected sweet pepper was wounded once using a cork borer according to the method described by de Lapeyre de Bellaire and Dubois (1987). Subsequently, each wound was inoculated with 10 μl of a Botrytis cinerea suspension containing 1×10^5 of spores/ml. After incubation for 3 hours at 20° C., each wound and the skin area of 0.5 cm around the wound was treated with in total 75 μl of a freshly prepared aqueous antifungal composition comprising either 400 ppm natamycin (DSM Food Specialties, Delft, The Netherlands), 600 ppm fenhexamid or both. Each antifungal composition also comprised 3.2% (w/w) beeswax, 0.8% (w/w) glycerol, 0.7% (w/w) polyoxyethylene sorbitan monostearate (Tween 60), 0.2% (w/w) polyoxyethylene sorbitan monooleate (Tween 80), 0.05% (w/w) methylhydroxyethyl-cellulose (MHEC), 0.03% (w/w) anti-foaming agent, 0.02% (w/w) xanthan gum, 0.02% (w/w) citric acid, 0.01% (w/w) lactic acid and 0.01% potassium sorbate. A composition without natamycin or fenhexamid was used as control.
The treated sweet peppers were incubated in a closed box in the dark at 20° C. and assessed on mould growth during a 26-day incubation period. The antifungal activity (in %) of the individual and combined active ingredients was determined by calculating the reduction in mould growth observed on the sweet peppers treated with the antifungal composition in comparison to the mould growth on the sweet peppers treated with the control composition according to the Colby method (Colby, 1967) described in Example 5.
The experiment was conducted as described in Example 9, except for the fact that each wounded and inoculated sweet pepper was treated with 75 μl of a freshly prepared aqueous antifungal composition comprising either 400 ppm natamycin (DSM Food Specialties, Delft, The Netherlands), 800 ppm carboxin or both. The treated sweet peppers were incubated in a closed box in the dark at 20° C. and assessed on mould growth during a 26-day incubation period. During incubation, the treated sweet peppers were assessed on mould growth according to the method described in Example 9.

Botrytis cinerea [2] = experiment: Treatment of wounded strawberries inoculated with Botrytis cinerea (Examples 5, 6); settings: for Observed antifungal activity O (%): strawberries, 20° C.
Experimental: Twelve fresh, organic strawberries were used per treatment. Each strawberry was wounded with a 0.5 mm long cut and each wound was inoculated with 10 μl of a Botrytis cinerea suspension containing 1×10^5 of spores/ml. After a 3-hour incubation period at 20° C., each strawberry was dipped individually for 1 minute in a freshly prepared aqueous antifungal composition comprising either 500 ppm natamycin (DSM Food Specialties, Delft, The Netherlands), 500 ppm fenhexamid or both. Each antifungal composition also comprised 3.2% (w/w) beeswax, 0.8% (w/w) glycerol, 0.7% (w/w) polyoxyethylene sorbitan monostearate (Tween 60), 0.1% (w/w) polyoxyethylene sorbitan monooleate (Tween 80), 0.05% (w/w) methylhydroxyethyl-cellulose (MHEC), 0.03% (w/w) anti-foaming agent, 0.02% (w/w) xanthan gum, 0.02% (w/w) citric acid, 0.01% (w/w) lactic acid and 0.01% potassium sorbate. A composition without natamycin or fenhexamid was used as control. […] The treated strawberries were incubated in a closed box in the dark at 20° C. for 11 days.
The expected antifungal activity (E in %) of the combined antifungal composition comprising both active ingredients was calculated according to the Colby equation (Colby, 1967): […]
wherein X and Y are the observed antifungal activities (in %) of the individual active ingredients X and Y, respectively.
The experiment was conducted as described in Example 5, except for the fact that each wounded and inoculated strawberry was dipped individually for 1 minute in a freshly prepared aqueous antifungal composition comprising either 250 ppm natamycin (DSM Food Specialties, Delft, The Netherlands), 250 ppm fenhexamid or both. The treated strawberries were incubated in a closed box in the dark at 20° C. for 10 days. During incubation, the treated strawberries were assessed on mould growth according to the two methods described in Example 5.

O=C(Nc1ccccc1-c1ccc(Cl)cc1)c1cccnc1Cl [Boscalid, boscalid]
Observed antifungal activity O (%) (Penicillium italicum; 7 days, 500 ppm natamycin, 800 ppm boscalid or both): 54%
Observed antifungal activity O (%) (Penicillium italicum; 8 days, 500 ppm natamycin, 800 ppm boscalid or both): 40%
Observed antifungal activity O (%) (Penicillium italicum; 9 days, 500 ppm natamycin, 800 ppm boscalid or both): 39%
Observed antifungal activity O (%) (Penicillium italicum; 10 days, 500 ppm natamycin, 800 ppm boscalid or both): 29%
Observed antifungal activity O (%) (Penicillium italicum; 11 days, 250 ppm natamycin, 400 ppm boscalid or both): 35%
Observed antifungal activity O (%) (Penicillium italicum; 11 days, 500 ppm natamycin, 800 ppm boscalid or both): 35%
Observed antifungal activity O (%) (Penicillium italicum; 12 days, 250 ppm natamycin, 400 ppm boscalid or both): 22%
Observed antifungal activity O (%) (Penicillium italicum; 12 days, 500 ppm natamycin, 800 ppm boscalid or both): 18%
Observed antifungal activity O (%) (Penicillium italicum; 13 days, 250 ppm natamycin, 400 ppm boscalid or both): 24%
Observed antifungal activity O (%) (Penicillium italicum; 13 days, 500 ppm natamycin, 800 ppm boscalid or both): 20%
Observed antifungal activity O (%) (Penicillium italicum; 14 days, 250 ppm natamycin, 400 ppm boscalid or both): 15%
Observed antifungal activity O (%) (Penicillium italicum; 14 days, 500 ppm natamycin, 800 ppm boscalid or both): 8%
Observed antifungal activity O (%) (Penicillium italicum; 15 days, 250 ppm natamycin, 400 ppm boscalid or both): 10%
Observed antifungal activity O (%) (Penicillium italicum; 15 days, 500 ppm natamycin, 800 ppm boscalid or both): 8%
Observed antifungal activity O (%) (Penicillium italicum; 17 days, 250 ppm natamycin, 400 ppm boscalid or both): 6%
Observed antifungal activity O (%) (Penicillium italicum; 17 days, 500 ppm natamycin, 800 ppm boscalid or both): 0%
Observed antifungal activity O (%) (Penicillium italicum; 18 days, 250 ppm natamycin, 400 ppm boscalid or both): 1%

CC1=C(C(=O)Nc2ccccc2)SCCO1 [Carboxin, carboxin]
Observed antifungal activity O (%) (Botrytis cinerea [1]; 17-19 days, 800 ppm carboxin or both): 67%
Observed antifungal activity O (%) (Botrytis cinerea [1]; 20-21 days, 800 ppm carboxin or both): 55%
Observed antifungal activity O (%) (Botrytis cinerea [1]; 22 days, 800 ppm carboxin or both): 45%
Observed antifungal activity O (%) (Botrytis cinerea [1]; 24 days, 800 ppm carboxin or both): 42%
Observed antifungal activity O (%) (Botrytis cinerea [1]; 25 days, 800 ppm carboxin or both): 41%
Observed antifungal activity O (%) (Botrytis cinerea [1]; 26 days, 800 ppm carboxin or both): 38%

CC1(C(=O)Nc2ccc(O)c(Cl)c2Cl)CCCCC1 [Fenhexamid, fenhexamid]
Number of moulded strawberries/total number of 12 strawberries (Botrytis cinerea [2]; Day 5, 20° C., 250 ppm natamycin, 250 ppm fenhexamid or both): 11/12
Number of moulded strawberries/total number of 12 strawberries (Botrytis cinerea [2]; Day 5, 20° C., 250 ppm natamycin, 250 ppm fenhexamid or both, listed as fenhexamid): 11
Number of moulded strawberries/total number of 12 strawberries (Botrytis cinerea [2]; Day 6, 20° C., 500 ppm natamycin, 500 ppm fenhexamid or both): 12/12
Number of moulded strawberries/total number of 12 strawberries (Botrytis cinerea [2]; Day 6-7, 20° C., 250 ppm natamycin, 250 ppm fenhexamid or both): 11/12
Number of moulded strawberries/total number of 12 strawberries (Botrytis cinerea [2]; Day 6-7, 20° C., 250 ppm natamycin, 250 ppm fenhexamid or both, listed as fenhexamid): 11
Number of moulded strawberries/total number of 12 strawberries (Botrytis cinerea [2]; Day 7-8, 20° C., 500 ppm natamycin, 500 ppm fenhexamid or both): 12/12
Number of moulded strawberries/total number of 12 strawberries (Botrytis cinerea [2]; Day 8, 20° C., 250 ppm natamycin, 250 ppm fenhexamid or both): 12/12
Number of moulded strawberries/total number of 12 strawberries (Botrytis cinerea [2]; Day 8, 20° C., 250 ppm natamycin, 250 ppm fenhexamid or both, listed as fenhexamid): 12
Number of moulded strawberries/total number of 12 strawberries (Botrytis cinerea [2]; Day 9, 20° C., 500 ppm natamycin, 500 ppm fenhexamid or both): 12/12
Number of moulded strawberries of 12 (Botrytis cinerea [2]; after 6 through 9 days of incubation, 500 ppm natamycin alone or 500 ppm fenhexamid alone): 12
Observed antifungal activity O (%) (Botrytis cinerea [2]; 4 days, 500 ppm natamycin, 500 ppm fenhexamid or both): 22%
Observed antifungal activity O (%) (Botrytis cinerea [2]; 5 days, 500 ppm natamycin, 500 ppm fenhexamid or both): 25%
Observed antifungal activity O (%) (Botrytis cinerea [2]; 6 days, 500 ppm natamycin, 500 ppm fenhexamid or both): 0%
Observed antifungal activity O (%) (Botrytis cinerea [2]; 7 days, 500 ppm natamycin, 500 ppm fenhexamid or both): 0%
Observed antifungal activity O (%) (Botrytis cinerea [2]; 8 days, 250 ppm natamycin, 250 ppm fenhexamid or both): 7.5%
Observed antifungal activity O (%) (Botrytis cinerea [2]; 8 days, 500 ppm natamycin, 500 ppm fenhexamid or both): 0%
Observed antifungal activity O (%) (Botrytis cinerea [2]; 9 days, 250 ppm natamycin, 250 ppm fenhexamid or both): 0%
Observed antifungal activity O (%) (Botrytis cinerea [2]; 9 days, 500 ppm natamycin, 500 ppm fenhexamid or both): 0%
Observed antifungal activity O (%) (Botrytis cinerea [2]; 10 days, 250 ppm natamycin, 250 ppm fenhexamid or both): 0%
Observed antifungal activity O (%) (Botrytis cinerea [2]; 10 days, 500 ppm natamycin, 500 ppm fenhexamid or both): 0%
Observed antifungal activity O (%) (Botrytis cinerea [2]; 11 days, 500 ppm natamycin, 500 ppm fenhexamid or both): 0%
Observed antifungal activity O (%) (Botrytis cinerea [1]; 13-17 days, 600 ppm fenhexamid or both): 0%
Observed antifungal activity O (%) (Botrytis cinerea [1]; 18-22 days, 600 ppm fenhexamid or both): 0%
Observed antifungal activity O (%) (Botrytis cinerea [1]; 6 days, 600 ppm fenhexamid or both): 0%
Observed antifungal activity O (%) (Botrytis cinerea [1]; 8 days, 600 ppm fenhexamid or both): 0%
Observed antifungal activity O (%) (Botrytis cinerea [1]; 10 days, 600 ppm fenhexamid or both): 00%
Observed antifungal activity O (%) (Botrytis cinerea [1]; 11 days, 600 ppm fenhexamid or both): 0%
Observed antifungal activity O (%) (Botrytis cinerea [1]; 24 days, 600 ppm fenhexamid or both): 0%
Observed antifungal activity O (%) (Botrytis cinerea [1]; 25 days, 600 ppm fenhexamid or both): 0%
Observed antifungal activity O (%) (Botrytis cinerea [1]; 26 days, 600 ppm fenhexamid or both): 0%
